Test results taken from patent US12018096B2, “Potent peptide inhibitors of protein aggregation” (COUNCIL OF SCIENTIFIC & INDUSTRIAL RESEARCH, priority 2017, dated 2024).
Entries after “also recorded” stand apart in the source; their conditions may differ. No end group written: not given here.

Columns and labels:
[1] = tested on: Rat phaeochromocytoma (PC12) cells; test: MTT assay with PC12 cells; assay type: cell-based
Experimental: MTT ((3-(4,5-Dimethylthiazol-2-yl)-2,5-diphenyltetrazolium bromide)) cell toxicity experiments were performed using Rat phaeochromocytoma (PC12) neuronal-like cells to assess toxicity of α-syn and the protective effects of the Pep.2 and CycPep.2 generated in this study. MTT assay (FIG. 5) was performed with PC12 cells incubated with α-syn fibrillation end products in presence and absence of peptides. […] However, with similar concentration of α-syn, the presence of Pep.2 and CycPep.2 improved cellular viability by 30% and >99% respectively.
MTT experiments were performed using Rat phaeochromocytoma (PC12) cells to assess cytotoxic effect of α-syn. Inhibition of PC12 cell redox activity is specific and early indicator of cell death. In MTT assay, water soluble MTT dye (3-(4, 5-dimethylthiazol-2-yl)-2,5-diphenyltetrazolium bromide) (#M2003 Sigma-Aldrich) is converted to formazan, and the conversion is monitored via absorbance measurement at 570 nm. The conversion of the MTT dye to formazan is dependent of redox status of the cell and thus the change in absorbance can be used as an indicator of the cellular viability in the assay.
PC12 cells were maintained in growth media RPMI 1640 supplemented with 10% horse serum, 5% fetal bovine serum, and antibiotics penicillin and streptomycin. […] The absorbance was measured at 570 nm using a multimode plate reader (TECAN infinite M200 PRO). […]

α-syn = target: T1, α-syn (Homo sapiens, UniProt P37840); test: In vitro fibrillation assay (Thioflavin T fluorescence); assay type: biochemical; conditions: α-syn 400 μM, purified peptide at equimolar concentration, 37° C., 900 rpm
T1 construct: His6 (N); made in house; host or cells: E. coli Rossetta (DE3), pET29a based expression vector
Experimental: ThT is a fluorescent dye which is known to bind specifically to […] rich fibrils, and such binding further increases its fluorescence intensity. The fibrillation assay was carried out with α-syn in the presence and absence of above identified interacting phages.
The N-terminal His6-tagged human wild-type α-syn was expressed in E. coli Rossetta (DE3) (#70954 Novagen) using pET29a based expression vector. After IPTG induction bacterial cell pellets were harvested by centrifugation and resuspended in 10 mM Tris-HCl, pH 8.0, 1 mM EDTA, 1 mM Pierce protease inhibitor cocktail. […] Briefly, cell lysis was carried out by sonication, lysate was boiled at 95° C. for 30 minutes, followed by centrifugation at 10,000×g for 30 minutes at 4° C. […] Protein was quantitated using BCA protein estimation kit as per manufacturer's protocol (#23227 Thermo Scientific).
Thioflavin T (ThT) (4 mM) was added to 400 μM of purified α-syn with and without phages (10^11) or purified peptides at equimolar concentration in a 96 microwell plate. The plate was incubated at 37° C. with a shaking speed of 900 rpm in linear mode in a multimode plate reader (TECAN infinite M200 PRO). Fluorescence kinetics was measured after every 15 minutes with emission wavelength of 482 nm upon excitation at 442 nm. […]

Substance | α-syn associated toxicity in PC12 cells (absorbance at 570 nm) ([1]; 10 μM α-syn with peptide in equimolar ratio, 24 hours) | improved cellular viability in presence of α-syn ([1]; PC12 cells, α-syn fibrillation end products with peptide in equimolar ratio, 24 h, α-syn alone gives loss of viability by about 50%) [%] | inhibition of α-syn fibrillation (ThT fluorescence) (α-syn)
Pep.2: SEQ ID NO 2; parent peptide identified from phage display against α-syn (Ac-SACNHHHHLHCGG; not fully specified; cysteine pairing not given here) | reduced α-syn associated toxicity | 30 | –
Pep.2d: SEQ ID NO 1; truncated derivative of Pep.2 (HHHH; Sequence retrieved through Sequence logo) | – | – | inhibits α-syn fibrillation; also recorded: able to reduce α-syn fibrillation comparable with Pep.2
